Assay results taken from patent publication US9326978B2, “A3 adenosine receptor allosteric modulators” (The United States of America, Represented by the Secretary, …, priority 2006, dated 2016).

Experiments:
human A3ARs [1] = target: T1, human A3ARs (Homo sapiens (Human), UniProt P0DMS8); assay: Dissociation kinetics of [125I]I-AB-MECA from human A3ARs; assay type: binding; conditions: 0.5 h, % decrease of dissociation at 30 min, residual binding of [125I]AB-MECA after 30 min = 100%, Table 2, read-out: hA3AR Ag. Dissociation at 10 μM
T1 sequence (P0DMS8 whole entry): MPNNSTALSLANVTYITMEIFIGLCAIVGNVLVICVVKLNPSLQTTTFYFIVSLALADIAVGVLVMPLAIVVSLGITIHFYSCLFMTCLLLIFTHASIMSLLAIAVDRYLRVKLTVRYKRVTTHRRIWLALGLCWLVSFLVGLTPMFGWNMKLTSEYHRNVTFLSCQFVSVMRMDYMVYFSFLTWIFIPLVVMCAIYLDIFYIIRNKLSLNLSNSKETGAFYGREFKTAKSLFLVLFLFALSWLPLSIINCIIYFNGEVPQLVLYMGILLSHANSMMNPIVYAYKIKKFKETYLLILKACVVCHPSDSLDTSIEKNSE
Description: The dissociation of [^125I]I-AB-MECA was measured as follows. Membranes (20 μg) were preincubated at 25° C. with 0.5 nM [^125I]I-AB-MECA, in a total volume of 100 μl of Tris-HCl buffer (50 mM, pH 8.0) containing 10 mM MgCl2, and 1 mM EDTA for 60 min. The dissociation was then initiated by the addition of 3 μM Cl-IB-MECA with or without allosteric modulators. The time course of dissociation of total binding was measured by rapid filtration at appropriate time intervals. Nonspecific binding was measured after 60-min incubation in the presence of 3 μM Cl-IB-MECA. Further assay was as described above.

human A3AR = human A3AR (Homo sapiens (Human), UniProt P0DMS8); assay: Competitive binding assay to the human A3AR ([125I]I-AB-MECA); conditions: for inhibition at 10 µM: 1 h, [125I]I-AB-MECA (0.5 nM), CHO cells, Table 2, read-out: hA3AR % displ. at 10 μM
Chain of human A3AR (P0DMS8 whole entry): as above
Description: (§1) CHO (Chinese hamster ovary) cells expressing the recombinant human ARs (HEK-293 cells were used for the human A2AAR) were cultured in DMEM and F12 (1:1) supplemented with 10% fetal bovine serum, 100 units/ml penicillin, […] streptomycin and 2 μmol/ml glutamine. Cells were harvested by trypsinization. After homogenization and suspension, cells were centrifuged at 500 g for 10 min, and the pellet was re-suspended in 50 mM Tris.HCl buffer (pH 7.4) containing 10 mM MgCl2. The suspension was homogenized with an electric homogenizer for 10 sec, and was then re-centrifuged at 20,000 g for 20 min at 4° C. The resultant pellets were resuspended in buffer in the presence of 3 Units/mL adenosine deaminase, and the suspension was stored at −80° C. until the binding experiments. The protein concentration was measured using the Bradford assay.
Each tube in the competitive binding assay contained 100 μl membrane suspension (20 μg protein), 50 μl [^125I]-AB-MECA (0.5 nM), and 50 μl of increasing concentrations of the test ligands in Tris.HCl buffer (50 mM, pH 8.0) containing 10 mM MgCl2, 1 mM EDTA. Nonspecific binding was determined using 10 μM of 5′-N-ethylcarboxamidoadenosine in the buffer. The mixtures were incubated at 25° C. for 60 min. Binding reactions were terminated by filtration through Whatman GF/B filters under reduced pressure using a MT-24 cell harvester (Brandell, Gaithersburgh, Md., USA). Filters were washed three times with 9 mL ice-cold buffer. Radioactivity was determined in a Beckman 5500B γ-counter.

hA2BAR = hA2BAR (Homo sapiens (Human), UniProt P29275); assay: Effect on NECA-induced cyclic AMP accumulation at A2B receptor; also: NECA (150 nM)-induced cyclic AMP accumulation; assay type: cell-based; conditions: read-out: hA2BAR % inhib. at 10 μM
Chain of hA2BAR (P29275 whole entry): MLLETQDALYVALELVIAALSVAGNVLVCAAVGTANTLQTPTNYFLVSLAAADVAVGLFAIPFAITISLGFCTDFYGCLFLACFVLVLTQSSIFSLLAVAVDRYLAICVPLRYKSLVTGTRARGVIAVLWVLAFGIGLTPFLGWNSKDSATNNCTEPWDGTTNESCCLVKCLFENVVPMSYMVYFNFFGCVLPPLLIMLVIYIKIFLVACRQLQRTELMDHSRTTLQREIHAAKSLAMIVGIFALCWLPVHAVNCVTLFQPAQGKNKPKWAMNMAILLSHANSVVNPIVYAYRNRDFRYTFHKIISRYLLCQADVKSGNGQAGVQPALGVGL

human A2A AR = human A2A AR (Homo sapiens (Human), UniProt P29274); assay: Binding assay to the human A2A AR ([3H]CGS21680); conditions: 10 μM; [3H]CGS 21680 (15 nM), HEK293 cells; Table 2
Chain of human A2A AR (P29274 whole entry): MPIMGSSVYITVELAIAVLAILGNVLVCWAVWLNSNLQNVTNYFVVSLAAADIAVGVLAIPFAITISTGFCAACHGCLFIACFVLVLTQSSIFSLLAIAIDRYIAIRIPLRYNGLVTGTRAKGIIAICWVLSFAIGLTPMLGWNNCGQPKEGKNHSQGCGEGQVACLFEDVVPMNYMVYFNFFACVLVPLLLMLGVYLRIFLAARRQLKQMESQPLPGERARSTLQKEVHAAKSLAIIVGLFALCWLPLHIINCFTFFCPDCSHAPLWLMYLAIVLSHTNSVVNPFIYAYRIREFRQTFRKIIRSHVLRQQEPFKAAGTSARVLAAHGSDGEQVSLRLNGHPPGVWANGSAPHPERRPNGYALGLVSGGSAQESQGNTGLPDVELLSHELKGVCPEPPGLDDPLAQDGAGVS
Description: as §1
(§2) For binding to the human A1AR, [^3H]R-PIA (2 nM) was incubated with membranes (40 μg/tube) from CHO cells stably expressing the human A1AR at 25° C. for 60 min in 50 mM Tris.HCl buffer (pH 7.4; MgCl2, 10 mM) in a total assay volume of 200 μL. Nonspecific binding was determined using 10 μM of N^6-cyclopentyladenosine. For human A2A AR binding, membranes (20 μg/tube) from HEK-293 cells stably expressing the human A2A AR were incubated with 15 nM [^3H]CGS21680 at 25° C. for 60 min in 200 μL of 50 mM Tris.HCl, pH 7.4, containing 10 mM MgCl2. N-5′-ethyluronamidoadenosine (10 μM) was used to define nonspecific binding. Reaction was terminated by filtration with GF/B filters.

human A1AR = human A1AR (Homo sapiens (Human), UniProt P30542); assay: Binding assay to the human A1AR ([3H]R-PIA); conditions: 1 h; 10 μM; [3H]R-PIA (2.0 nM), CHO cells; Table 2; read-out: hA1AR % displ. at 10 μM
Chain of human A1AR (P30542 whole entry): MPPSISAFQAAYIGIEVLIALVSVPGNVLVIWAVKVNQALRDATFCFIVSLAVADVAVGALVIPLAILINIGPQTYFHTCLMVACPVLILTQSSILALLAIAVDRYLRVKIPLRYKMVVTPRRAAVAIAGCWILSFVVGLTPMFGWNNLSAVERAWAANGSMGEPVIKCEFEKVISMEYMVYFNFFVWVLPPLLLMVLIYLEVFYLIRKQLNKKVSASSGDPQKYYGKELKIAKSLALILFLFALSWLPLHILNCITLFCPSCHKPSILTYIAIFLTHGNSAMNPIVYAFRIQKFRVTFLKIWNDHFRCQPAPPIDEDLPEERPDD
Description: as §1, §2

human A3ARs [2] = target: T1, human A3ARs; assay: Cyclic AMP accumulation assay, efficacy at hA3AR; assay type: cell-based; conditions: compared to maximal effect by 2-Cl-IB-MECA alone (control = 100%)
Description: Intracellular cyclic AMP levels were measured with a competitive protein binding method (Nordstedt and Fredholm, 1990). CHO cells that expressed recombinant human A3ARs were harvested by trypsinization. After centrifugation and resuspension in medium, cells were plated in 24-well plates in 0.5 ml medium. After 24 hr, the medium was removed and cells were washed three times with 1 ml DMEM, containing 50 mM HEPES, pH 7.4. Cells were then treated with agonists and/or test compounds in the presence of rolipram (10 μM) and adenosine deaminase (3 units/ml). After 45 min forskolin (10 μM) was added to the medium, and incubation was continued an additional 15 min. The reaction was terminated by removing the supernatant, and cells were lysed upon the addition of 200 μL of 0.1 M ice-cold HCl. The cell lysate was resuspended and stored at −20° C. For determination of cyclic AMP production, protein kinase A (PKA) was incubated with [^3H]cyclic AMP (2 nM) in K2HPO4/EDTA buffer (K2HPO4, 150 mM; EDTA, 10 mM), 20 μL of the cell lysate, and 30 μL 0.1 M HCl or 50 μL of cyclic AMP solution (0-16 pmol/200 μL for standard curve). Bound radioactivity was separated by rapid filtration through Whatman GF/C filters and washed once with cold buffer. Bound radioactivity was measured by liquid scintillation spectrometry.

Row | SMILES | melting point | activity at 10 µM (human A3ARs [1]) | inhibition at 10 µM (human A3AR) | inhibition at 10 µM (hA2BAR) | hA2AAR % displ. at 10 μM (human A2A AR) | inhibition at 10 µM (human A1AR) | % Increase of efficacy at hA3AR at 10 μM (human A3ARs [2]) | affinity to orthosteric versus allosteric binding sites (selective affinity) (human A3AR; orthosteric sites of A1, A2A, A2B, A3 receptors vs allosteric site of A3 adenosine receptor)
1 | c1ccc(CCNc2nc3ccccc3c3[nH]c(C4CCCC4)nc23)cc1 [Compound 41, N-(Phenylethyl)-2-cyclopentyl-1H-imidazo[4,5-c]quinolin-4-amine] | 95 to 97 °C | 154 ± 7% | 84% | -11.6% | 91% | 52% | 137 ± 4% | 
2 | Clc1ccc(Nc2nc3ccccc3c3[nH]c(C4CCCCCC4)nc23)cc1Cl [Compound 42, N-(3,4-Dichloro-phenyl)-2-cycloheptyl-1H-imidazo[4,5-c]quinolin-4-amine] | 236 to 238 °C | 130 ± 2% | 68% | -7.3% | −2% | -4% | 115 ± 7% | selective affinity
3 | Clc1ccc(Nc2nc3ccccc3c3[nH]c(-c4ccco4)nc23)cc1Cl [Compound 43] | 135 to 138 °C | 98 ± 3% | 78% | 9% | 70% | -4% | 95 ± 4% | 
4 | Clc1ccc(Nc2nc3ccccc3c3[nH]cnc23)cc1Cl [Compound 46, N-(3,4-Dichloro-phenyl)-2-1H-imidazo[4,5-c]quinolin-4-amine] | 167 to 172 °C | 91 ± 7% | 39% | 10.2% | −0.8% | 1.8% | 92 ± 4% | 
5 | CCCCCc1nc2c(Nc3ccc(Cl)c(Cl)c3)nc3ccccc3c2[nH]1 [Compound 47, N-(3,4-Dichloro-phenyl)-2-pentyl-1H-imidazo[4,5-c]quinolin-4-amine] | 195 to 200 °C | 116 ± 5% | 84% | -9.3% | −1% | 43.9% | 102 ± 5% | 

Now from value to compound, other results behind:

Row | melting point | activity at 10 µM (human A3ARs [1]) | inhibition at 10 µM (human A3AR) | inhibition at 10 µM (hA2BAR) | hA2AAR % displ. at 10 μM (human A2A AR) | inhibition at 10 µM (human A1AR) | % Increase of efficacy at hA3AR at 10 μM (human A3ARs [2]) | SMILES | affinity to orthosteric versus allosteric binding sites (selective affinity) (human A3AR; orthosteric sites of A1, A2A, A2B, A3 receptors vs allosteric site of A3 adenosine receptor)
6 | 142 to 145 °C | 108 ± 4% | 69% | -10.7% | 8% | 21% | 111 ± 5% | c1ccc2c(c1)nc(Nc1ccc3c(c1)CCC3)c1nc(C3CCCC3)[nH]c12 [Compound 36, N-([3,4-c]Indan)-2-cyclopentyl-1H-imidazo[4,5-c]quinolin-4-amine] | 
7 | 235 to 236 °C | 109 ± 3% | 67% | 5% | 68% | 56% | 96 ± 2% | c1ccc2c(c1)nc(Nc1ccc3cn[nH]c3c1)c1nc(C3CCCC3)[nH]c12 [Compound 37, N-(1H-indazol-6-yl)-2-cyclopentyl-1H-imidazo[4,5-c]quinolin-4-amine] | 
8 | 245 to 247 °C | 101 ± 13% | 80% | 0.3% | 60% | 59% | 109 ± 3% | COc1ccc(CNc2nc3ccccc3c3[nH]c(C4CCCC4)nc23)cc1 [Compound 38, N-(4-Methoxy-benzyl)-2-cyclopentyl-1H-imidazo[4,5-c]quinolin-4-amine] | 
9 | 260 to 261 °C | 126 ± 9% | 89% | 10.1% | 74% | 70% | 125 ± 2% | c1ccc2c(c1)nc(Nc1ccc3cc[nH]c3c1)c1nc(C3CCCC3)[nH]c12 [Compound 39, N-(1H-Indol-6-yl)-2-cyclopentyl-1H-imidazo[4,5-c]quinolin-4-amine] | 
